System: LNCaP xenograft tumor-bearing mice
Test: Biodistribution of 225Ac-macropa-RPS-070 in LNCaP xenograft mice
Assay type: in vivo, mouse
Conditions: 4-96 h; no accumulation of 225Ac in liver, spleen, bone
Protocol: Cell Culture. […] Cell culture supplies were from Invitrogen unless otherwise noted.
Inoculation of Mice with Xenografts. All animal studies were approved by the Institutional Animal Care and Use Committee of Weill Cornell Medicine and were undertaken in accordance with the guidelines set forth by the USPHS Policy on Humane Care and Use of Laboratory Animals. Animals were housed under standard conditions in approved facilities with 12 h light/dark cycles. Food and water was provided ad libitum throughout the course of the studies. Hairless male nu/nu mice were purchased from the Jackson Laboratory. For inoculation in mice, LNCaP cells were suspended at 4×10^7 cells/mL in a 1:1 mixture of PBS:Matrigel (BD Biosciences). Each mouse was injected in the left flank with 0.25 mL of the cell suspension. Biodistributions were conducted when tumors were in the range 100-400 mm^3.
Biodistribution of […] in LNCaP xenograft mice. Fifteen LNCaP xenograft tumor-bearing mice (5 per time point) were injected intravenously with a bolus injection of 85-95 kBq and 100 ng ([…]) of each ligand. The mice were sacrificed by cervical dislocation at 4, 24 and 96 h post injection. A blood sample was removed, and a full biodistribution study was conducted on the following organs (with contents): heart, lungs, liver, small intestine, large intestine, stomach, spleen, pancreas, kidneys, muscle, bone, and tumor. Tissues were weighed and counted on a 2470 Wizard Automatic Gamma Counter (Perkin Elmer). 1% ID/mL samples were counted prior to and following each set of tissue samples to enable decay correction to be undertaken. Counts were corrected for decay and for activity injected, and tissue uptake was expressed as percent injected dose per gram (% ID/g). Standard error measurement was calculated for each data point.

## O=C(O)CC[C@H](NC(=O)N[C@@H](CCCCNC(=O)Nc1cccc(-c2cn(CCOCCOCCOCCOCCOCCOCCC(=O)N[C@@H](CCCCNC(=S)Nc3cc(CN4CCOCCOCCN(Cc5cccc(C(=O)O)n5)CCOCCOCC4)nc(C(=O)O)c3)C(=O)N[C@@H](CCCCNC(=O)Cc3ccc(I)cc3)C(=O)O)nn2)c1)C(=O)O)C(=O)O [macropa-RPS-070, (((S)-1-Carboxy-5-(3-(3-(1-((23S,26S)-26-carboxy-23-(4-(3-(2-carboxy-6-((16-((6-carboxypyridin-2-yl)methyl)-1,4,10,13-tetraoxa-7,16-diazacyclooctadecan-7-yl)methyl)pyridin-4-yl)thioureido)butyl)-33-(4-iodophenyl)-21,24,32-trioxo-3,6,9,12,15,18-hexaoxa-22,25,31-triazatritriacontyl)-1H-1,2,3-triazol-4-yl)phenyl)ureido)pentyl)carbamoyl)-L-glutamic acid]
  retention of 225Ac by the construct in vivo: stably retain

From patent US12377175B2, “Trifunctional constructs with tunable pharmacokinetics useful in imaging and anti-tumor therapies” (Cornell University, priority 2016, dated 2025)
